From patent publication US20070026080A1, “Manufacturing process for tigecycline” (Wyeth, priority 2005, published 2007)
Values joined by “and” are separate entries in the source; they are usually repeats but may differ in a detail not shown here. Equal entries are not always repeated.

Assay: Strength and degradation profile of tigecycline 20 mg/mL bulk solutions by reversed phase HPLC (effect of temperature, time, pH, dissolved oxygen; Runs A to O)
Format: physicochemical
Conditions: 20 mg/mL
Protocol: The contents of the sample vials are dissolved in diluent. The sample solution is diluted, if necessary, and chromatographed on a reversed phase column using gradient elution. Impurities are determined by comparing the impurity peak areas in the sample preparation chromatogram to the average area of tigecycline peaks in the standard preparation chromatograms obtained concomitantly.
Chromatographic Column—Length about 15 cm, inside diameter about 4.6 mm, packed with Inertsil ODS2, 5 μm size particles or equivalent.
Detector—Ultraviolet spectrophotometric detector capable of operating at 248 nm with a sensitivity of about 0.5 absorbance units full scale.
The results of additional studies to investigate the effect of processing parameters such as temperature, time, and dissolved oxygen content on the purity profile of tigecycline solutions using the following materials, methods and procedures are presented in Tables A to O.
The experiments were run in plastic glove bags under normal laboratory light conditions. Plastic glove boxes will be used to control the headspace of the beakers. The batch size was 200 mL. • 1. Prepare the glove bag with a mixture of nitrogen and air to achieve an oxygen level in the solution as per the design. • 2. Place the jacketed beaker on the magnetic stirrer. Connect it to the cooler. Set the cooler to the desired set point. • 3. Add 200 mL of SWFI in to the beaker. Allow equilibrating. Measure the temperature and oxygen content. When it reaches the desired condition, add accurately weighed API and mix until dissolved. If necessary use spatula to aid dissolution. For pH adjustments, use 4 mL of either 0.1N NaOH or 0.1N HCl and 196 mL of WFI for manufacture. • 4. After complete dissolution, Transfer about 5.5 mL of Solution in vials and stopper them. These vials will be stoppered at the appropriate headspace conditions. Place the vials in appropriate temperature conditions. • 5. Sample the vials at 1, 4, 8, 10, 12 and 24 hours. Send the samples for analysis. Freeze the 10, 12 and 24 samples at −20° C. for analysis the following day. • 6. Measure pH and record color of the solution at each time point. Results
The 1-hour samples were taken directly from the beakers. Samples for later time points were collected in stoppered vials processed in the atmosphere of the bag in order to simulate the headspace conditions then placed in water baths or refrigerator to maintain there respective temperature conditions. This was done to maintain safety in the lab. Disposable plastic glove bags require constant flow of a mixture of nitrogen and air to maintain headspace oxygen level that will result in the desired dissolved oxygen (DO) content in the sample. The pH of samples was measured at each sample points.
Strength and degradation profile was analyzed by HPLC as described above. […] Degradation was slightly higher at higher temperature condition.

[1] = Run #A, 2° C., pH 8.2, Oxygen 2.0 mg/L, hours 1,4,8,10,12,24 at r6-r11
[2] = Run #A, 2° C., pH 8.2, Oxygen 2.0 mg/L, hours 1,4,8,10,12,24 at r17-r22
[3] = Run #B, 8° C., pH 8.2, Oxygen 2.0 mg/L, hours 1,4,8,10,12,24 at r6-r11, 1 hours
[4] = Run #B, 8° C., pH 8.2, Oxygen 2.0 mg/L, hours 1,4,8,10,12,24 at r6-r11, 4 hours
[5] = Run #B, 8° C., pH 8.2, Oxygen 2.0 mg/L, hours 1,4,8,10,12,24 at r6-r11, 8 hours
[6] = Run #B, 8° C., pH 8.2, Oxygen 2.0 mg/L, hours 1,4,8,10,12,24 at r6-r11, 10 hours
[7] = Run #B, 8° C., pH 8.2, Oxygen 2.0 mg/L, hours 1,4,8,10,12,24 at r6-r11, 12 hours
[8] = Run #B, 8° C., pH 8.2, Oxygen 2.0 mg/L, hours 1,4,8,10,12,24 at r6-r11, 24 hours
[9] = Run #B, 8° C., pH 8.2, Oxygen 2.0 mg/L, hours 1,4,8,10,12,24 at r17-r22, 1 hours
[10] = Run #B, 8° C., pH 8.2, Oxygen 2.0 mg/L, hours 1,4,8,10,12,24 at r17-r22, 4 hours
[11] = Run #B, 8° C., pH 8.2, Oxygen 2.0 mg/L, hours 1,4,8,10,12,24 at r17-r22, 8 hours
[12] = Run #B, 8° C., pH 8.2, Oxygen 2.0 mg/L, hours 1,4,8,10,12,24 at r17-r22, 10 hours
[13] = Run #B, 8° C., pH 8.2, Oxygen 2.0 mg/L, hours 1,4,8,10,12,24 at r17-r22, 12 hours
[14] = Run #B, 8° C., pH 8.2, Oxygen 2.0 mg/L, hours 1,4,8,10,12,24 at r17-r22, 24 hours
[15] = Run #C, 2° C., pH 7.7, Oxygen 2 mg/L, hours 1,4,8,10,12,24 at r6-r11
[16] = Run #C, 2° C., pH 7.7, Oxygen 2 mg/L, hours 1,4,8,10,12,24 at r6-r11, 1 h hold time
[17] = Run #C, 2° C., pH 7.7, Oxygen 2 mg/L, hours 1,4,8,10,12,24 at r6-r11, 4 h hold time
[18] = Run #C, 2° C., pH 7.7, Oxygen 2 mg/L, hours 1,4,8,10,12,24 at r6-r11, 10 h hold time
[19] = Run #C, 2° C., pH 7.7, Oxygen 2 mg/L, hours 1,4,8,10,12,24 at r6-r11, 12 h hold time
[20] = Run #C, 2° C., pH 7.7, Oxygen 2 mg/L, hours 1,4,8,10,12,24 at r6-r11, 24 h hold time
[21] = Run #C, 2° C., pH 7.7, Oxygen 2 mg/L, hours 1,4,8,10,12,24 at r17-r22, 1 h hold time
[22] = Run #C, 2° C., pH 7.7, Oxygen 2 mg/L, hours 1,4,8,10,12,24 at r17-r22, 4 h hold time
[23] = Run #C, 2° C., pH 7.7, Oxygen 2 mg/L, hours 1,4,8,10,12,24 at r17-r22, 8 h hold time
[24] = Run #C, 2° C., pH 7.7, Oxygen 2 mg/L, hours 1,4,8,10,12,24 at r17-r22, 10 h hold time
[25] = Run #C, 2° C., pH 7.7, Oxygen 2 mg/L, hours 1,4,8,10,12,24 at r17-r22, 24 h hold time
[26] = Run #D, 8° C., pH 7.7, Oxygen 2.0 mg/L, hours 1,4,8,10,12,24 at r6-r11, after 1 hours

## CN(C)c1cc(NC(=O)CNC(C)(C)C)c(O)c2c1C[C@H]1C[C@H]3[C@H](N(C)C)C(O)=C(C(N)=O)C(=O)[C@@]3(O)C(O)=C1C2=O [Tigecycline]
[1]
  RRT 0.58: 0.06% and 0.07%
  RRT 0.64 9-Amino: BRL (BRL means below reporting limit (meaning less than 0.05% of tigecycline peak))
  RRT 0.74 Epimer: 0.26% and 0.23% and 0.18% and 0.20% and 0.19% and 0.25%
  Strength: 19.901 mg/mL and 19.504 mg/mL and 19.639 mg/mL and 19.610 mg/mL and 19.473 mg/mL and 19.806 mg/mL
[2]
  RRT 1.12: BRL (BRL means below reporting limit (meaning less than 0.05% of tigecycline peak))
  RRT 1.45: 0.06% and 0.08% and 0.07% and 0.09%
  RRT 1.58: BRL (BRL means below reporting limit (meaning less than 0.05% of tigecycline peak))
  RRT 1.64 Mino: 0.10% and 0.11%
  RRT 1.85 MW = 597: 0.06% and 0.08% and 0.07% and 0.14%
  Total: 0.47% and 0.76% and 0.86% and 1.26% and 1.40% and 1.86%
[3]
  RRT 0.55 MW = 583: 0.11%
  Strength: 19.149 mg/mL
[4]
  RRT 0.55 MW = 583: 0.20%
  Strength: 19.046 mg/mL
[5]
  RRT 0.55 MW = 583: 0.27%
  Strength: 18.795 mg/mL
[6]
  RRT 0.55 MW = 583: 0.32%
  Strength: 19.144 mg/mL
[7]
  RRT 0.55 MW = 583: 0.29%
  Strength: 18.668 mg/mL
[8]
  RRT 0.55 MW = 583: 0.42%
  Strength: 17.784 mg/mL
[9]
  RRT 0.74 Epimer: 0.20%
  RRT 1.64 Mino: 0.10%
  RRT 1.67 MW = 556: 0.14%
  RRT 1.85 MW = 597: 0.08%
  Total: 0.75%
[10]
  RRT 0.74 Epimer: 0.19%
  RRT 1.64 Mino: 0.05%
  RRT 1.67 MW = 556: 0.25%
  RRT 1.85 MW = 597: 0.07%
  Total: 1.12%
[11]
  RRT 0.74 Epimer: 0.23%
  RRT 1.64 Mino: 0.07%
  RRT 1.67 MW = 556: 0.35%
  Total: 1.85%
[12]
  RRT 0.74 Epimer: 0.22%
  RRT 1.64 Mino: 0.11%
  RRT 1.67 MW = 556: 0.29%
  RRT 1.85 MW = 597: 0.09%
  Total: 2.38%
[13]
  RRT 0.74 Epimer: 0.24%
  RRT 1.64 Mino: 0.09%
  RRT 1.67 MW = 556: 0.23%
  Total: 2.61%
[14]
  RRT 1.67 MW = 556: 0.50%
  RRT 1.85 MW = 597: 0.11%
  Total: 5.36%
[15]
  RRT 0.12 MW = 633: BRL (BRL means below reporting limit (meaning less than 0.05% of tigecycline peak))
  RRT 0.64 9-Amino: BRL (BRL means below reporting limit (meaning less than 0.05% of tigecycline peak))
[16]
  RRT 0.58: 0.08%
  RRT 0.74 Epimer: 0.20%
  Strength: 19.339 mg/mL
[17]
  RRT 0.58: 0.06%
  RRT 0.74 Epimer: 0.19%
  Strength: 19.246 mg/mL
Run #C, 2° C., pH 7.7, Oxygen 2 mg/L, hours 1,4,8,10,12,24 at r6-r11, 8 h hold time
  Strength: 19.031 mg/mL
[18]
  RRT 0.74 Epimer: 0.27%
  Strength: 19.415 mg/mL
[19]
  RRT 0.58: 0.07%
  RRT 0.74 Epimer: 0.30%
  Strength: 19.048 mg/mL
[20]
  RRT 0.58: 0.05%
  RRT 0.74 Epimer: 0.21%
  Strength: 19.226 mg/mL
Run #C, 2° C., pH 7.7, Oxygen 2 mg/L, hours 1,4,8,10,12,24 at r17-r22
  RRT 1.12: BRL (BRL means below reporting limit (meaning less than 0.05% of tigecycline peak))
[21]
  RRT 1.45: 0.07%
  RRT 1.64 Mino: 0.10%
  RRT 1.85 MW = 597: 0.06%
  Total: 0.59%
[22]
  RRT 1.64 Mino: 0.09%
  Total: 0.60%
[23]
  RRT 1.45: 0.13%
  RRT 1.64 Mino: 0.11%
  RRT 1.85 MW = 597: 0.07%
  Total: 0.87%
[24]
  RRT 1.85 MW = 597: 0.08%
  Total: 1.20%
Run #C, 2° C., pH 7.7, Oxygen 2 mg/L, hours 1,4,8,10,12,24 at r17-r22, 12 h hold time
  Total: 1.38%
[25]
  RRT 1.45: 0.06%
  Total: 1.52%
Run #D, 8° C., pH 7.7, Oxygen 2.0 mg/L, hours 1,4,8,10,12,24 at r6-r11
  RRT 0.64 9-Amino: BRL (BRL means below reporting limit (meaning less than 0.05% of tigecycline peak))
[26]
  RRT 0.55 MW = 583: 0.08%
  RRT 0.74 Epimer: 0.19%
